Active and inactive are the calls of the source. How the calls were made is not given here.
Tested on: CCRIS mutagenicity, Ames/micronucleus/aberration tests
Experiment: CCRIS mutagenicity studies
[1] = Test System: AMES SALMONELLA TYPHIMURIUM, Strain/Indicator: TA98, Metabolic Activation: NONE, Method: STANDARD PLATE
[2] = Test System: AMES SALMONELLA TYPHIMURIUM, Strain/Indicator: TA98, Metabolic Activation: RAT, LIVER, S-9, AROCLOR 1254, Method: STANDARD PLATE
[3] = Test System: AMES SALMONELLA TYPHIMURIUM, Strain/Indicator: TA1538, Metabolic Activation: NONE, Method: STANDARD PLATE
[4] = Test System: AMES SALMONELLA TYPHIMURIUM, Strain/Indicator: TA1538, Metabolic Activation: RAT, LIVER, S-9, AROCLOR 1254, Method: STANDARD PLATE
[5] = Test System: AMES SALMONELLA TYPHIMURIUM, Strain/Indicator: TA100, Metabolic Activation: NONE, Method: STANDARD PLATE
[6] = Test System: AMES SALMONELLA TYPHIMURIUM, Strain/Indicator: TA100, Metabolic Activation: RAT, LIVER, S-9, AROCLOR 1254, Method: STANDARD PLATE

CC(=O)N(O)c1ccc2c(c1)Cc1ccccc1-2
mutagenic call (Test System: AMES SALMONELLA TYPHIMURIUM, Strain/Indicator: TA98, Metabolic Activation: GUINEA PIG, LIVER, HEPATOCYTES): active; positive
mutagenic call (Test System: AMES SALMONELLA TYPHIMURIUM, Strain/Indicator: TA98, Metabolic Activation: GUINEA PIG, LIVER, S-9, Method: STANDARD PLATE): active; positive
mutagenic call (Test System: AMES SALMONELLA TYPHIMURIUM, Strain/Indicator: TA98, Metabolic Activation: HAMSTER, LIVER, HEPATOCYTES): active; positive
mutagenic call (Test System: AMES SALMONELLA TYPHIMURIUM, Strain/Indicator: TA98, Metabolic Activation: HAMSTER, LIVER, S-9, Method: STANDARD PLATE): active; positive
mutagenic call (Test System: AMES SALMONELLA TYPHIMURIUM, Strain/Indicator: TA98, Metabolic Activation: HUMAN, FETAL LIVER, S-9): active; positive
mutagenic call (Test System: AMES SALMONELLA TYPHIMURIUM, Strain/Indicator: TA98, Metabolic Activation: MOUSE, LIVER, HEPATOCYTES): active; positive
mutagenic call (Test System: AMES SALMONELLA TYPHIMURIUM, Strain/Indicator: TA98, Metabolic Activation: MOUSE, LIVER, S-9, Method: STANDARD PLATE): active; positive
mutagenic call [1]: active; positive
mutagenic call (Test System: AMES SALMONELLA TYPHIMURIUM, Strain/Indicator: TA98, Metabolic Activation: RABBIT, LIVER, MICROSOMAL FRACTION, Method: STANDARD PLATE): active; positive
mutagenic call (Test System: AMES SALMONELLA TYPHIMURIUM, Strain/Indicator: TA98, Metabolic Activation: RABBIT, LUNG, MICROSOMAL FRACTION, Method: STANDARD PLATE): active; positive
mutagenic call (Test System: AMES SALMONELLA TYPHIMURIUM, Strain/Indicator: TA98, Metabolic Activation: RAT, LIVER, HEPATOCYTES): active; positive
mutagenic call [2]: active; positive
mutagenic call (Test System: AMES SALMONELLA TYPHIMURIUM, Strain/Indicator: TA98, Metabolic Activation: RAT, LIVER, S-9, Method: STANDARD PLATE): active; positive
mutagenic call (Test System: AMES SALMONELLA TYPHIMURIUM, Strain/Indicator: TA98, Metabolic Activation: V-79 CELL HOMOGENATE, Method: PREINCUBATION): active; positive
mutagenic call [3]: active; positive
mutagenic call [4]: active; positive
mutagenic call (Test System: AMES SALMONELLA TYPHIMURIUM, Strain/Indicator: TA1538, Metabolic Activation: RAT, LIVER, S-9, KC500 OR PHENOBARBITAL, Method: LIQUID SUSPENSION): active; positive
mutagenic call (Test System: AMES SALMONELLA TYPHIMURIUM, Strain/Indicator: YG1012, Metabolic Activation: NONE, Method: PREINCUBATION): active; positive
mutagenic call (Test System: AMES SALMONELLA TYPHIMURIUM, Strain/Indicator: YG1019, Metabolic Activation: NONE, Method: PREINCUBATION): active; positive
mutagenic call (Test System: AMES SALMONELLA TYPHIMURIUM, Strain/Indicator: YG1020, Metabolic Activation: NONE, Method: PREINCUBATION): active; positive
mutagenic call (Test System: AMES SALMONELLA TYPHIMURIUM, Strain/Indicator: YG1024, Metabolic Activation: NONE, Method: PREINCUBATION): active; positive
mutagenic call (Test System: CHINESE HAMSTER V-79, Strain/Indicator: V-79/6-THIOGUANINE, Metabolic Activation: NONE): active; positive
mutagenic call (Test System: CHINESE HAMSTER V-79, Strain/Indicator: V-79/8-AZAGUANINE, Metabolic Activation: NONE, Method: STANDARD PLATE): active; positive
mutagenic call (Test System: E. COLI, Strain/Indicator: WP2 UVRA, Metabolic Activation: NONE, Method: STANDARD PLATE): inactive; negative
mutagenic call (Test System: UDS GUINEA PIG HEPATOCYTES, Strain/Indicator: THY INCORP, Metabolic Activation: NONE, Method: LIQUID SCINTILLATION COUNTING): active; positive
mutagenic call (Test System: UDS HAMSTER HEPATOCYTES, Strain/Indicator: THY INCORP, Metabolic Activation: NONE, Method: LIQUID SCINTILLATION COUNTING): active; positive
mutagenic call (Test System: UDS HUMAN CELLS, Strain/Indicator: THY INCORP (NON-S-PHASE), Metabolic Activation: RAT, LIVER, S-9, PHENOBARBITAL, Method: LIQUID SCINTILLATION COUNTING): active; positive
mutagenic call (Test System: UDS HUMAN FIBROBLASTS, Strain/Indicator: THY INCORP (NON-S-PHASE), Metabolic Activation: NONE, Method: AUTORADIOGRAPHY): active; positive
mutagenic call (Test System: UDS HUMAN FIBROBLASTS, Strain/Indicator: THY INCORP (NON-S-PHASE), Metabolic Activation: NONE, Method: LIQUID SCINTILLATION COUNTING): active; positive
mutagenic call (Test System: UDS HUMAN LYMPHOCYTES, Strain/Indicator: THY INCORP (NON-S-PHASE), Metabolic Activation: NONE, Method: LIQUID SCINTILLATION COUNTING): active; positive
mutagenic call (Test System: UDS MOUSE HEPATOCYTES, Strain/Indicator: THY INCORP, Metabolic Activation: NONE, Method: LIQUID SCINTILLATION COUNTING): active; positive
mutagenic call (Test System: UDS RAT HEPATOCYTES, Strain/Indicator: THY INCORP, Metabolic Activation: NONE, Method: LIQUID SCINTILLATION COUNTING): active; positive
mutagenic call (Test System: UDS RODENT HEPATOCYTES, Strain/Indicator: THY INCORP (NON-S-PHASE), Method: AUTORADIOGRAPHY): active; positive
mutagenic call (Test System: UDS RODENT HEPATOCYTES, Strain/Indicator: THY INCORP (NON-S-PHASE), Method: LIQUID SCINTILLATION COUNTING): active; positive

O=C1Nc2ccc([N+](=O)[O-])cc2C1=O
mutagenic call (Test System: AMES SALMONELLA TYPHIMURIUM, Strain/Indicator: TA98, Metabolic Activation: HAMSTER, LIVER, S-9, AROCLOR 1254, Method: STANDARD PLATE): active; positive
mutagenic call [1]: active; positive
mutagenic call [2]: active; positive
mutagenic call (Test System: AMES SALMONELLA TYPHIMURIUM, Strain/Indicator: TA100, Metabolic Activation: HAMSTER, LIVER, S-9, AROCLOR 1254, Method: STANDARD PLATE): active; positive
mutagenic call [5]: active; positive
mutagenic call [6]: active; positive
mutagenic call (Test System: MOUSE LYMPHOMA, Strain/Indicator: L5178Y (TK+/TK-), Metabolic Activation: NONE, Method: SUSPENSION/PLATE): active; positive. reevaluation of results: positive
mutagenic call (Test System: MOUSE LYMPHOMA, Strain/Indicator: L5178Y (TK+/TK-), Metabolic Activation: RAT, LIVER, S-9, AROCLOR 1254, Method: SUSPENSION/PLATE): active; positive. reevaluation of results: equivocal

CN(C)c1ccc(N=Nc2ccc3ncsc3c2)cc1
mutagenic call (Test System: AMES SALMONELLA TYPHIMURIUM, Strain/Indicator: TA98, Metabolic Activation: RAT, LIVER, S-9, AROCLOR 1254, Method: PREINCUBATION): active; positive
mutagenic call (Test System: AMES SALMONELLA TYPHIMURIUM, Strain/Indicator: TA98, Metabolic Activation: RAT, LIVER, S-9, AROCLOR, Method: PREINCUBATION): active; positive
mutagenic call (Test System: AMES SALMONELLA TYPHIMURIUM, Strain/Indicator: TA98, Metabolic Activation: RAT, LIVER, S-9, AROCLOR, Method: STANDARD PLATE): active; positive
mutagenic call (Test System: AMES SALMONELLA TYPHIMURIUM, Strain/Indicator: TA98, Metabolic Activation: RAT, LIVER, S-9, Method: PREINCUBATION): active; positive
mutagenic call (Test System: UDS RAT HEPATOCYTES, Strain/Indicator: THY INCORP, Metabolic Activation: NONE, Method: AUTORADIOGRAPHY): active; positive
mutagenic call (Test System: UDS RAT HEPATOCYTES, Strain/Indicator: THY INCORP, Metabolic Activation: NONE, Method: IN VIVO): active; positive
mutagenic call (Test System: UDS RODENT HEPATOCYTES, Strain/Indicator: THY INCORP (NON-S-PHASE), Metabolic Activation: NONE, Method: AUTORADIOGRAPHY): active; positive

CC(F)(F)F
mutagenic call (Test System: AMES SALMONELLA TYPHIMURIUM, Strain/Indicator: TA97, Metabolic Activation: NONE, Method: STANDARD PLATE): inactive; negative
mutagenic call (Test System: AMES SALMONELLA TYPHIMURIUM, Strain/Indicator: TA97, Metabolic Activation: RAT, LIVER, S-9, AROCLOR 1254, Method: STANDARD PLATE): inactive; negative
mutagenic call [1]: inactive; negative
mutagenic call [2]: inactive; negative
mutagenic call [5]: inactive; negative
mutagenic call [6]: inactive; negative
mutagenic call (Test System: AMES SALMONELLA TYPHIMURIUM, Strain/Indicator: TA1535, Metabolic Activation: NONE, Method: STANDARD PLATE): inactive; negative
mutagenic call (Test System: AMES SALMONELLA TYPHIMURIUM, Strain/Indicator: TA1535, Metabolic Activation: RAT, LIVER, S-9, AROCLOR 1254, Method: STANDARD PLATE): inactive; negative
mutagenic call [3]: inactive; negative
mutagenic call [4]: inactive; negative
mutagenic call (Test System: E. COLI, Strain/Indicator: WP2 UVRA (PKM101), Metabolic Activation: NONE, Method: STANDARD PLATE): inactive; negative
mutagenic call (Test System: E. COLI, Strain/Indicator: WP2 UVRA (PKM101), Metabolic Activation: RAT, LIVER, S-9, AROCLOR 1254, Method: STANDARD PLATE): inactive; negative

— PubChem BioAssay AID1259407 (Chemical Carcinogenesis Research Information System (CCRIS), 2018)
